The results in this text go back to patent US11649231B2, “Compound as mTOR inhibitor and use thereof” (MEDICINAL BIOCONVERGENCE RESEARCH CENTER, priority 2018, dated 2023).

In this test the test system is mTORC1. In words: mTORC1 activity inhibitory effect at 20 μM, phospho-p70 S6 Kinase Western blot in SW620 cells. As to conditions: leucine-free 1 h 30 min, then leucine 15 min, vs DMSO control. On the technique in general: A western blot detects proteins with antibodies after separation by electrophoresis.
Experimental: In order to evaluate the inhibitory effect of the compounds according to the present invention on the activity of mTORC1, an experiment was performed in the following manner.
Regarding `Cc1nn(-c2ccccc2)c(C)c1/C=C1\SC(=S)NC1=O` [Example 1-38, (5Z)-5-[(3,5-dimethyl-1-phenyl-pyrazol-4-yl)methylene]-2-thioxo-thiazolidin-4-one], the “mTORC1 inhibitory effect (%)” value is 75.78 ± 2.60%.

Turning to `Cc1ccc(-n2cc(/C=C3\SC(=S)N(C)C3=O)cn2)cc1` [Example 1-21, (5Z)-3-methyl-5-[[1-(p-tolyl)pyrazol-4-yl]methylene]-2-thioxo-thiazolidin-4-one], the “mTORC1 inhibitory effect (%)” value came out at 71.18 ± 5.04%.

Consider `C=CCN1C(=O)/C(=C/c2cnn(-c3cccc(Cl)c3)c2)SC1=S` [Example 1-16, (5Z)-3-allyl-5-[[1-(3-chlorophenyl)pyrazol-4-yl]methylene]-2-thioxo-thiazolidin-4-one], for which the “mTORC1 inhibitory effect (%)” value amounted to 3.74 ± 10.43%.

For the compound `CCN1C(=O)/C(=C/c2cnn(-c3ccccc3)c2)SC1=S` [Example 1-4, (5Z)-3-ethyl-5-[(1-phenylpyrazol-4-yl)methylene]-2-thioxo-thiazolidin-4-one], the “mTORC1 inhibitory effect (%)” value was 68.36 ± 1.69%.

With `O=C1NC(=O)/C(=C/c2cnn(-c3ccccc3F)c2)S1` [Example 1-40, (5Z)-5-[[1-(2-fluorophenyl)pyrazol-4-yl]methylene]thiazolidine-2,4-dione], the “mTORC1 inhibitory effect (%)” value came out at 41.03 ± 0.21%.

Regarding `Cc1nn(-c2ccccc2)c(C)c1/C=C1\SC(=O)NC1=O` [Example 1-54, (5Z)-5-[(3,5-dimethyl-1-phenyl-pyrazol-4-yl]methylene]thiazolidine-2,4-dione], the “mTORC1 inhibitory effect (%)” value turned out to be 71.17 ± 4.46%.

In the case of `C=CCN1C(=O)/C(=C/c2cnn(-c3ccccc3)c2)SC1=S` [Example 1-5, (5Z)-3-allyl-5-[(1-phenylpyrazol-4-yl)methylene]-2-thioxo-thiazolidin-4-one], the “mTORC1 inhibitory effect (%)” value worked out at 45.82 ± 3.59%.

As for `O=C1NC(=O)/C(=C/c2cnn(-c3ccccc3Cl)c2)S1` [Example 1-43, (5Z)-5-[[1-(2-chlorophenyl)pyrazol-4-yl]methylene]thiazolidine-2,4-dione], the “mTORC1 inhibitory effect (%)” value turned out to be 52.34 ± 3.97%.

As for `O=C1NC(=O)/C(=C/c2cnn(-c3cccc(Cl)c3)c2)S1` [Example 1-44, (5Z)-5-[[1-(3-chlorophenyl)pyrazol-4-yl]methylene]thiazolidine-2,4-dione], the “mTORC1 inhibitory effect (%)” value was determined as 50.76 ± 5.28%.

Consider `COc1ccccc1-n1cc(/C=C2\SC(=O)NC2=O)cn1` [Example 1-50, (5Z)-5-[[1-(2-methoxyphenyl)pyrazol-4-yl]methylene]thiazolidine-2,4-dione], for which the “mTORC1 inhibitory effect (%)” value is reported as 38.93 ± 16.04%.

Turning to `C=CCN1C(=O)/C(=C/c2cnn(-c3ccccc3Cl)c2)SC1=S` [Example 1-12, (5Z)-3-allyl-5-[[1-(2-chlorophenyl)pyrazol-4-yl]methylene]-2-thioxo-thiazolidin-4-one], the “mTORC1 inhibitory effect (%)” value came out at 70.93 ± 2.39%.

For the compound `O=C1/C(=C/c2cnn(-c3cccnc3)c2)SC(=S)N1CCO` [Example 1-36, (5Z)-3-(2-hydroxyethyl)-5-[[1-(3-pyridyl)pyrazol-4-yl]methylene]-2-thioxo-thiazolidin-4-one], the “mTORC1 inhibitory effect (%)” value is recorded as 80.88 ± 1.10%.

Take `C=CCN1C(=O)/C(=C/c2cnn(-c3ccc(C)cc3)c2)SC1=S` [Example 1-23, (5Z)-3-allyl-5-[[1-(p-tolyl)pyrazol-4-yl]methylene]-2-thioxo-thiazolidin-4-one]: the “mTORC1 inhibitory effect (%)” value amounted to 15.74 ± 10.22%.

As for `CCN1C(=O)/C(=C/c2cnn(-c3cccc(Cl)c3)c2)SC1=S` [Example 1-15, (5Z)-5-[[1-(3-chlorophenyl)pyrazol-4-yl]methylene]-3-ethyl-2-thioxo-thiazolidin-4-one], the “mTORC1 inhibitory effect (%)” value was 72.46 ± 1.79%.

In the case of `O=C1NC(=S)S/C1=C\c1ccn(-c2ccc(Cl)cc2)n1` [Example 1-55, (5Z)-5-[[1-(4-chlorophenyl)pyrazol-3-yl]methylene]-2-thioxo-thiazolidin-4-one], the “mTORC1 inhibitory effect (%)” value is 74.6 ± 6.5%.

Regarding `CN1C(=O)/C(=C/c2cnn(-c3ccccc3)c2)SC1=S` [Example 1-3, (5Z)-3-methyl-5-[(1-phenylpyrazol-4-yl)methylene]-2-thioxo-thiazolidin-4-one], the “mTORC1 inhibitory effect (%)” value came to 53.97 ± 1.49%.

For `Cc1nn(-c2ccccc2)cc1/C=C1\SC(=O)NC1=O` [Example 1-53, (5Z)-5-[(3-methyl-1-phenyl-pyrazol-4-yl)methylene]thiazolidine-2,4-dione], the “mTORC1 inhibitory effect (%)” value amounted to 71.70 ± 1.70%.

As to `Cc1ccc(-n2cc(/C=C3\SC(=S)NC3=O)cn2)cc1` [Example 1-20, (5Z)-5-[[1-(p-tolyl)pyrazol-4-yl]methylene]-2-thioxo-thiazolidin-4-one], the “mTORC1 inhibitory effect (%)” value was 83.30 ± 1.76%.

`Cn1cc(/C=C2\SC(=S)N(Cc3ccco3)C2=O)cn1` [Example 1-2, (5Z)-3-(2-furylmethyl)-5-[(1-methylpyrazol-4-yl)methylene]-2-thioxo-thiazolidin-4-one]: the “mTORC1 inhibitory effect (%)” value came out at 74.4 ± 0.2%.

Consider `CCN1C(=O)/C(=C/c2cnn(-c3ccc(C)c(C)c3)c2)SC1=S` [Example 1-29, (5Z)-5-[[1-(3,4-dimethylphenyl)pyrazol-4-yl]methylene]-3-ethyl-2-thioxo-thiazolidin-4-one], for which the “mTORC1 inhibitory effect (%)” value stood at 4.02 ± 6.64%.

On to `CN1C(=O)/C(=C/c2cnn(-c3cccc(Cl)c3)c2)SC1=S` [Example 1-14, (5Z)-5-[[1-(3-chlorophenyl)pyrazol-4-yl]methylene]-3-methyl-2-thioxo-thiazolidin-4-one], for which the “mTORC1 inhibitory effect (%)” value was 46.72 ± 14.22%.

For `Cc1ccc(-n2cc(/C=C3\SC(=O)NC3=O)cn2)cc1C` [Example 1-49, (5Z)-5-[[1-(3,4-dimethylphenyl)pyrazol-4-yl]methylene]thiazolidine-2,4-dione], the “mTORC1 inhibitory effect (%)” value amounted to 68.36 ± 2.99%.

Take `CCN1C(=O)/C(=C/c2cnn(-c3ccc(C)cc3)c2)SC1=S` [Example 1-22, (5Z)-3-ethyl-5-[[1-(p-tolyl)pyrazol-4-yl]methylene]-2-thioxo-thiazolidin-4-one]: the “mTORC1 inhibitory effect (%)” value is 77.21 ± 0.84%.

`O=C1NC(=O)/C(=C/c2cnn(-c3ccc(Cl)cc3)c2)S1` [Example 1-45, (5Z)-5-[[1-(4-chlorophenyl)pyrazol-4-yl]methylene]thiazolidine-2,4-dione]: the “mTORC1 inhibitory effect (%)” value turned out to be 64.18 ± 3.13%.

Take `CCN1C(=O)/C(=C/c2cnn(-c3ccccc3Cl)c2)SC1=S` [Example 1-11, (5Z)-5-[[1-(2-chlorophenyl)pyrazol-4-yl]methylene]-3-ethyl-2-thioxo-thiazolidin-4-one]: the “mTORC1 inhibitory effect (%)” value stood at 67.22 ± 1.41%.

For the compound `CN1C(=O)/C(=C/c2cnn(-c3ccc(Cl)cc3)c2)SC1=S` [Example 1-18, (5Z)-5-[[1-(4-chlorophenyl)pyrazol-4-yl]methylene]-3-methyl-2-thioxo-thiazolidin-4-one], the “mTORC1 inhibitory effect (%)” value turned out to be 50.17 ± 12.77%.

`O=C1NC(=O)/C(=C/c2ccn(-c3cccnc3)n2)S1` [Example 1-60, (5Z)-5-[[1-(3-pyridyl)pyrazol-3-yl]methylene]thiazolidine-2,4-dione]: the “mTORC1 inhibitory effect (%)” value came to 81.52 ± 3.79%.

As for `CCCCc1ccc(-n2cc(/C=C3\SC(=S)N(CC)C3=O)cn2)cc1` [Example 1-27, (5Z)-5-[[1-(4-butylphenyl)pyrazol-4-yl]methylene]-3-ethyl-2-thioxo-thiazolidin-4-one], the “mTORC1 inhibitory effect (%)” value was found to be 51.70 ± 7.12%.

As to `CN1C(=O)/C(=C/c2cnn(-c3ccccc3Cl)c2)SC1=S` [Example 1-10, (5Z)-5-[[1-(2-chlorophenyl)pyrazol-4-yl]methylene]-3-methyl-2-thioxo-thiazolidin-4-one], the “mTORC1 inhibitory effect (%)” value was determined as 50.52 ± 3.69%.

Regarding `Cc1ccc(-n2cc(/C=C3\SC(=S)NC3=O)cn2)cc1C` [Example 1-28, (5Z)-5-[[1-(3,4-dimethylphenyl)pyrazol-4-yl]methylene]-2-thioxo-thiazolidin-4-one], the “mTORC1 inhibitory effect (%)” value is reported as 47.13 ± 3.15%.

For `Cc1ccc(-n2cc(/C=C3\SC(=O)NC3=O)cn2)cc1` [Example 1-46, (5Z)-5-[[1-(p-tolyl)pyrazol-4-yl]methylene]thiazolidine-2,4-dione], the “mTORC1 inhibitory effect (%)” value is 74.39 ± 0.62%.

With `CCCCc1ccc(-n2cc(/C=C3\SC(=S)NC3=O)cn2)cc1` [Example 1-26, (5Z)-5-[[1-(4-butylphenyl)pyrazol-4-yl]methylene]-2-thioxo-thiazolidin-4-one], the “mTORC1 inhibitory effect (%)” value is given as 59.73 ± 3.55%.

Take `O=C1NC(=O)/C(=C/c2cnn(-c3ccc(F)cc3)c2)S1` [Example 1-42, (5Z)-5-[[1-(4-fluorophenyl)pyrazol-4-yl]methylene]thiazolidine-2,4-dione]: the “mTORC1 inhibitory effect (%)” value is 73.81 ± 2.77%.

With `CCN1C(=O)/C(=C/c2cnn(-c3ccc4ccccc4c3)c2)SC1=S` [Example 1-32, (5Z)-3-ethyl-5-[[1-(2-naphthyl)pyrazol-4-yl]methylene]-2-thioxo-thiazolidin-4-one], the “mTORC1 inhibitory effect (%)” value turned out to be 75.04 ± 5.32%.

As for `CCCCc1ccc(-n2cc(/C=C3\SC(=O)NC3=O)cn2)cc1` [Example 1-48, (5Z)-5-[[1-(4-butylphenyl)pyrazol-4-yl]methylene]thiazolidine-2,4-dione], the “mTORC1 inhibitory effect (%)” value is on record as 69.53 ± 2.04%.

Turning to `O=C1NC(=S)S/C1=C\c1cnn(-c2ccc3ccccc3c2)c1` [Example 1-31, (5Z)-5-[[1-(2-naphthyl)pyrazol-4-yl]methylene]-2-thioxo-thiazolidin-4-one], the “mTORC1 inhibitory effect (%)” value was determined as 40.20 ± 1.02%.

For `CCN1C(=O)/C(=C/c2cnn(-c3ccc(Cl)cc3)c2)SC1=S` [Example 1-19, (5Z)-5-[[1-(4-chlorophenyl)pyrazol-4-yl]methylene]-3-ethyl-2-thioxo-thiazolidin-4-one], the “mTORC1 inhibitory effect (%)” value stood at 54.17 ± 8.55%.

Take `O=C1NC(=O)/C(=C/c2cnn(-c3cccc(F)c3)c2)S1` [Example 1-41, (5Z)-5-[[1-(3-fluorophenyl)pyrazol-4-yl]methylene]thiazolidine-2,4-dione]: the “mTORC1 inhibitory effect (%)” value was 49.37 ± 7.34%.

With `O=C1NC(=O)/C(=C/c2cnn(-c3ccc4ccccc4c3)c2)S1` [Example 1-51, (5Z)-5-[[1-(2-naphthyl)pyrazol-4-yl]methylene]thiazolidine-2,4-dione], the “mTORC1 inhibitory effect (%)” value is reported as 53.08 ± 1.81%.
